The series can be described thus: Evaluation of pharmacokinetic parameters for Nisoldipine following oral administration of 17 to 51 mg of Nisoldipine extended release tablets. It counts as ADME, organism-based. Conditions: human, in vivo, dose 17-51 mg, dosed compound id 7, dosed compound name NISOLDIPINE, tissue Plasma.

Each structure is given as a SMILES string.

A word on the Tmax: it is the time from dosing to the highest level. As usually defined, the bioavailability is the share of a dose that reaches the circulation, judged against a reference dose that is usually intravenous. Read a low bioavailability as little systemic uptake. `COC(=O)C1=C(C)NC(C)=C(C(=O)OCC(C)C)C1c1ccccc1[N+](=O)[O-]` (stereo not drawn) [NISOLDIPINE]: the Tmax came to 9.2 h and the bioavailability was 5%. Besides, where the note is “read-out: t1/2-elimination (converted)”, the half-life was 13.7 h.

The values are drawn from ChEMBL document CHEMBL3832552, “DailyMed|setid=e3780ba1-46ef-410c-b2fc-f1ffbfb598f3 | SULAR - nisoldipine tablet, film coated, extended release|Physicians Total Care, Inc”.
